The source of these data is PMC3813752 (PLoS ONE, 2013).

Assay [1] has as its target T1, human CB1 receptor (Homo sapiens, UniProt P21554). Put plainly: cAMP accumulation assay, CHO cells expressing CB1. The format is cell-based. The settings on record: for functional property at CB1 (agonist/antagonist): in words, standard ligands partly from the literature.
Assay [2] has as its target T2, human GPR18 (Homo sapiens, UniProt Q14330).
T2 sequence (Q14330 1-331): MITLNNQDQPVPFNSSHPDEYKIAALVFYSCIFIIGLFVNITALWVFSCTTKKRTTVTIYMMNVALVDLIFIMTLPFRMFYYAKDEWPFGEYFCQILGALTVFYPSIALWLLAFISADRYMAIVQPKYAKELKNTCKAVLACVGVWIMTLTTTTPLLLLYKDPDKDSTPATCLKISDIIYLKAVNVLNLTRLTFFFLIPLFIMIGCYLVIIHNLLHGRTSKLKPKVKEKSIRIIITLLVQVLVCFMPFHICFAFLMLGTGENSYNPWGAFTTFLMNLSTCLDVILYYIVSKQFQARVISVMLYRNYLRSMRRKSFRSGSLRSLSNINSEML
Put plainly: cell-based. Conditions: for inhibition at 10 µM: CHO, read-out: % inhibition of Δ9-THC (10 µM)-induced β-arrestin recruitment at GPR18, test compound at 10 µM; for IC50: GPR18 IC50, β-arrestin recruitment, antagonist mode vs. Δ9-THC (10 µM).

The target in assay [3] is T3, human CB2 receptor (Homo sapiens, UniProt P34972). Briefly: Radioligand binding (heterologous competition) vs. [3H]CP55,940 at CB2. The settings on record: for Ki: three independent experiments in duplicates.
The target in assay [4] is human GPR55 (Homo sapiens, UniProt Q9Y2T6). Briefly: β-arrestin recruitment assay (PathHunter), CHO cells expressing GPR55. The settings on record: for inhibition at 10 µM: CHO; for IC50: GPR55 IC50, β-arrestin recruitment, antagonist mode vs. LPI (1 µM); for agonist effect on β-arrestin recruitment at GPR55: test compound 10 µM, related to effect of LPI 1 µM = 100%; for functional property at GPR55 (agonist/antagonist): in words. For orientation: Activated receptors often draw arrestin, which recruitment assays turn into a signal.

Assay [5] concerns the target T3, human CB2 receptor. Put plainly: cAMP accumulation assay, CHO cells expressing CB2. In kind it is cell-based. Conditions: for functional property at CB2 (agonist/antagonist): in words, standard ligands partly from the literature. On the technique in general: Changes in cAMP serve as a functional read-out for many G protein-coupled receptors.
The target of assay [6] is T2, human GPR18. Conditions: for agonist effect on β-arrestin recruitment at GPR18: test compound 10 µM, related to effect of Δ9-THC 10 µM = 100%; for functional property at GPR18 (agonist/antagonist): in words.
For assay [7], the target named is T1, human CB1 receptor. Put plainly: biochemical. The format is binding. Conditions: for Ki: membranes of CHO cells expressing human CB1, three independent experiments in duplicates, read-out: Ki CB1, heterologous competition vs. [3H]CP55,940; for increase in CB1 receptor affinity compared to the unmethylated parent biphenyl: 60a vs 60, 61a vs 61.
The mark [8] stands for this setting: at 10 µM, compared to max. effect of full agonist CP55,940 (1 µM) = 100%.
Where [9] appears, read: membranes of CHO cells expressing human CB2, read-out: Ki CB2, heterologous competition vs. [3H]CP55,940.
Where [10] appears, read: read-out: % inhibition of LPI (1 µM)-induced β-arrestin recruitment at GPR55, test compound at 10 µM.
The mark [11] stands for this setting: inhibition of forskolin-stimulated cAMP, CHO-hCB1, read-out: EC50 CB1, cAMP accumulation assay.
[12] abbreviates: Ki CB2, heterologous competition vs. [3H]CP55,940, membranes of CHO cells expressing human CB2.
Setting [13] is: read-out: % inhibition of LPI (1 µM)-induced β-arrestin recruitment at GPR55.

Molecules are shown by their SMILES. Several values for one entry are separate records, joined by “and”; a condition that tells them apart may be missing. Equal values may be shown once. Entries after “also recorded” stand apart in the source; their conditions may differ. Read-outs that look alike come from different tables or passages of the source. Marks after values point to notes of the source that are not given here.

T3 sequence (P34972 whole entry): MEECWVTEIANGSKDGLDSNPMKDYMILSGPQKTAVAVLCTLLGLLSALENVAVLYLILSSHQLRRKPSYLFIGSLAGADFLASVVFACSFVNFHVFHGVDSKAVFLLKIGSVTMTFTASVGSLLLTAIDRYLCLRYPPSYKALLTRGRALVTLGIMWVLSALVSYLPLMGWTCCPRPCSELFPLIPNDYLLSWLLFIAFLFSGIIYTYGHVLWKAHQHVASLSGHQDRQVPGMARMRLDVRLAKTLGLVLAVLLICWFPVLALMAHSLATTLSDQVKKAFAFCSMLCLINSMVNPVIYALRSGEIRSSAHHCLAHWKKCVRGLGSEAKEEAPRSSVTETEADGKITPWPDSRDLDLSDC
Chain of human GPR55 (Q9Y2T6 whole entry): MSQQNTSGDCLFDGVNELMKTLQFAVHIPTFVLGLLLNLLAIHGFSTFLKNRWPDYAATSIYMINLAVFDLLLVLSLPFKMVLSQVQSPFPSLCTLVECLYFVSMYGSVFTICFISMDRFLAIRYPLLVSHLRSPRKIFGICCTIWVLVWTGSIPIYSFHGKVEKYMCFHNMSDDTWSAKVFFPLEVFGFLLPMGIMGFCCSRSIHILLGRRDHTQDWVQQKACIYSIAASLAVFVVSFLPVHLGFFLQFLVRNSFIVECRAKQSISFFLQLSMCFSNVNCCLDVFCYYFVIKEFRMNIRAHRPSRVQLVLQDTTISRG
T1 sequence (P21554 whole entry): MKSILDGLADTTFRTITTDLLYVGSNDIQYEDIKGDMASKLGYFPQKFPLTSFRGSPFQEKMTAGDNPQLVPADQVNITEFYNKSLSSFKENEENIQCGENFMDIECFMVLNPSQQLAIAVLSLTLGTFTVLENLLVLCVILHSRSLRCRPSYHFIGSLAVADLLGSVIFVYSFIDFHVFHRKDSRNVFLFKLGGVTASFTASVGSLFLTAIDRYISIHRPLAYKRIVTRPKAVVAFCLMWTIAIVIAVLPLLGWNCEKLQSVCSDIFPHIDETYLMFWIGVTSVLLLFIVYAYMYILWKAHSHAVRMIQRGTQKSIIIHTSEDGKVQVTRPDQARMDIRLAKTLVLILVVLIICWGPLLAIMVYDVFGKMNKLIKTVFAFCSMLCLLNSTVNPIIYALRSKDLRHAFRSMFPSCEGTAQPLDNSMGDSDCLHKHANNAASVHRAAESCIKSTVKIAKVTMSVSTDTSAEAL

Broadly, the EC50 is the concentration giving half of the maximal effect. The term inhibition denotes the relative decrease from the control value, in per cent. For orientation: IC50 means the midpoint of a concentration-inhibition curve. Lower therefore signals higher potency. The Ki is a measure of affinity in units of concentration, obtained from inhibition or displacement. On to `CCCCCc1ccc(O)c(-c2cc(CCCC)ccc2O)c1` [Compound 64], for which, in assay [1] (setting [8]), the “efficacy CB1, cAMP accumulation assay” value was “(122%)^b”. For the same compound, in assay [2], the EC50 is above 10000 nM, the inhibition at 10 µM is 94% and the concentration for half-maximal inhibition (IC50) worked out at 13900 ± 900 nM. The Ki in assay [3] (setting [9]) came to 234 ± 39 nM. In assay [4], the EC50 is above 10000 nM, the IC50 was above 10000 nM and the “agonist effect on β-arrestin recruitment at GPR55” value (from here on “agonist effect … at GPR55”) is 15%. Moreover, the inhibition at 10 µM in assay [4] (setting [10]) worked out at 21%. The “efficacy CB2, cAMP accumulation assay” value in assay [5] (setting [8]) was “(68%)^b”. For the same compound, the “agonist effect on β-arrestin recruitment at GPR18” value (from here on “agonist effect … at GPR18”) in assay [6] came to 0%. The Ki in assay [7] was found to be 3610 ± 1350 nM.

Regarding `CCCCCCc1ccc(OC)c(-c2cc(CCC)ccc2O)c1` [Compound 61b, 5′-Hexyl-2′-methoxy-5-propylbiphenyl-2-ol], in assay [1], the Kb is 1850 nM and the “functional property at CB1 (agonist/antagonist)” value is “CB1-antagonistic activity; also recorded: antagonist”. In assay [2], the EC50 was above 10000 nM, the inhibition at 10 µM amounted to 22% and the IC50 was above 10000 nM. Also, the Ki in assay [3] (setting [9]) stood at 281 ± 101 nM. In addition, in assay [4], the half-maximal effective concentration (EC50) was above 10000 nM, the IC50 was 3250 ± 290 nM, the “functional property at GPR55 (agonist/antagonist)” value is reported as “antagonist” and the “agonist effect … at GPR55” value was found to be 0%. The inhibition at 10 µM in assay [4] (setting [10]) worked out at 120%. Besides, in assay [5], the response was half-maximal at 595 ± 150 nM (EC50) and the “functional property at CB2 (agonist/antagonist)” value is recorded as “partial agonistic activity; also recorded: agonist”. In addition, in assay [6], the “functional property at GPR18 (agonist/antagonist)” value is listed as “antagonist” and the “agonist effect … at GPR18” value is given as 0%. In assay [7], the “reduction of CB1 receptor affinity compared to 61” value is recorded as 2 fold and the Ki is 313 ± 125 nM.

On to `CCCc1ccc(O)c(-c2cc(CCC)ccc2OC)c1` [Compound 12a, methoxytetrahydromagnolol], for which the “functional property at CB1 (agonist/antagonist)” value in assay [1] is “Full agonists; also recorded: agonist”. The EC50 in assay [1] (setting [11]) came out at 622 ± 284 nM. Besides, in assay [2], the EC50 was above 10000 nM, the inhibition at 10 µM stood at 41% and the IC50 was around 10000 nM. Besides, the affinity in assay [3] (setting [12]), expressed as Ki, was 221 ± 57 nM. Further, in assay [4], the EC50 is above 10000 nM, it took 4550 ± 1080 nM to reach half-maximal inhibition (IC50), the “functional property at GPR55 (agonist/antagonist)” value was “antagonist” and the “agonist effect … at GPR55” value is recorded as 0%. In addition, the inhibition at 10 µM in assay [4] (setting [13]) came to 82%. In assay [5], the EC50 amounted to 77.8 ± 20.5 nM and the “functional property at CB2 (agonist/antagonist)” value was “Full agonists; also recorded: agonist”. In assay [6], the “functional property at GPR18 (agonist/antagonist)” value is recorded as “antagonist” and the “agonist effect … at GPR18” value amounted to 26%. Moreover, in assay [7], the Ki came to 267 ± 58 nM.

On to `CCCCCc1ccc(O)c(-c2cc(CCC)ccc2OC)c1` [Compound 60a, 2-(2-methoxy-5-propyl-phenyl)-4-pentylphenol], for which the “functional property at CB1 (agonist/antagonist)” value in assay [1] is on record as “Full agonists; also recorded: agonist”. Moreover, the EC50 in assay [1] (setting [11]) was determined as 37.5 ± 5.6 nM. For the same compound, in assay [2], the EC50 is above 10000 nM; the inhibition at 10 µM worked out at 47%; the IC50 is > 10000 nM and ~10000 nM. The affinity in assay [3] (setting [12]), expressed as Ki, was 31 ± 9.9 nM. In addition, in assay [4], the EC50 is above 10000 nM, the IC50 is 6930 ± 1060 nM, the “functional property at GPR55 (agonist/antagonist)” value is recorded as “antagonist” and the “agonist effect … at GPR55” value is listed as 0%. The inhibition at 10 µM in assay [4] (setting [13]) amounted to 66%. Moreover, in assay [5], it took 39.9 ± 10 nM to reach a half-maximal effect (EC50) and the “functional property at CB2 (agonist/antagonist)” value is on record as “Full agonists; also recorded: agonist”. Moreover, in assay [6], the “functional property at GPR18 (agonist/antagonist)” value is reported as “antagonist” and the “agonist effect … at GPR18” value worked out at 22%. For the same compound, in assay [7], the “increase in CB1 receptor affinity compared to the unmethylated parent biphenyl” value is on record as 21 fold and the Ki was determined as 17.3 ± 1.4 nM.

Regarding `CCCCCCc1ccc(O)c(-c2cc(CCC)ccc2OC)c1` [Compound 61a, 5-Hexyl-2′-methoxy-5′-propylbiphenyl-2-ol], the “functional property at CB1 (agonist/antagonist)” value in assay [1] was “Full agonists; also recorded: agonist”. The EC50 in assay [1] (setting [11]) was 159 ± 76 nM. In assay [2], the EC50 is above 10000 nM, the inhibition at 10 µM came out at 30% and the IC50 was above 10000 nM. Further, the “increase in CB2 receptor affinity of 61a compared to isomer 61b” value in assay [3] is recorded as 12 fold. This compound gave a Ki in assay [3] (setting [12]) of 23.8 ± 7.1 nM. Also, in assay [4], the EC50 is above 10000 nM, the IC50 was around 10000 nM, the “functional property at GPR55 (agonist/antagonist)” value is recorded as “antagonist” and the “agonist effect … at GPR55” value is 0%. Further, the inhibition at 10 µM in assay [4] (setting [13]) is 58%. Also, in assay [5], the response was half-maximal at 38.5 ± 17 nM (EC50) and the “functional property at CB2 (agonist/antagonist)” value is reported as “Full agonists; also recorded: agonist”. In assay [6], the “functional property at GPR18 (agonist/antagonist)” value is “antagonist” and the “agonist effect … at GPR18” value was found to be 0%. In addition, in assay [7], the “increase in CB1 receptor affinity of 61a compared to isomer 61b” value is reported as 33 fold, the “increase in CB1 receptor affinity compared to the unmethylated parent biphenyl” value is recorded as 15 fold and the Ki was determined as 9.57 ± 5.43 nM.

With `CCCCCc1ccc(O)c(-c2cc(CCC)ccc2O)c1` [Compound 60, 5-Pentyl-5′-propylbiphenyl-2,2′-diol], in assay [1], a half-maximal effect (EC50) was put at 971 ± 89 nM and the “functional property at CB1 (agonist/antagonist)” value is “full agonistic effects; also recorded: full agonists; also recorded: agonist”. Besides, in assay [2], the EC50 is above 10000 nM, the inhibition at 10 µM was determined as 118% and half-maximal inhibition (IC50) was put at 14500 ± 2800 nM. For the same compound, the affinity in assay [3] (setting [12]) corresponds to a Ki of 37.1 ± 7.8 nM. Further, in assay [4], the EC50 was above 10000 nM; the IC50 is > 10000 nM and ~10000 nM; the “functional property at GPR55 (agonist/antagonist)” value is given as “antagonist”; the “agonist effect … at GPR55” value was 28%. Besides, the inhibition at 10 µM in assay [4] (setting [10]) was determined as 45%. For the same compound, in assay [5], a half-maximal effect (EC50) was put at 258 ± 13 nM and the “functional property at CB2 (agonist/antagonist)” value is “partial agonists; also recorded: almost full efficacy; also recorded: agonist”. In assay [6], the “functional property at GPR18 (agonist/antagonist)” value is on record as “antagonist” and the “agonist effect … at GPR18” value was 0%. Moreover, the Ki in assay [7] came to 362 ± 113 nM.

As to `CCCCCCc1ccc(O)c(-c2cc(CCC)ccc2O)c1` [Compound 61, 5-Hexyl-5′-propylbiphenyl-2,2′-diol], in assay [1], the EC50 was determined as 829 ± 278 nM and the “functional property at CB1 (agonist/antagonist)” value was “full agonistic effects; also recorded: full agonists; also recorded: agonist”. Besides, in assay [2], the EC50 was above 10000 nM; the inhibition at 10 µM was 139%; the IC50 was ~10400 nM and 10400 nM. In addition, the affinity in assay [3] (setting [12]), expressed as Ki, was 29.4 ± 9 nM. Further, in assay [4], the EC50 is above 10000 nM; the IC50 was > 10000 nM and ~10000 nM; the “functional property at GPR55 (agonist/antagonist)” value is listed as “antagonist”; the “agonist effect … at GPR55” value worked out at 32%. Besides, the inhibition at 10 µM in assay [4] (setting [10]) is 45%. For the same compound, in assay [5], the midpoint of the response, the EC50, lay at 159 ± 18 nM and the “functional property at CB2 (agonist/antagonist)” value is “almost full efficacy; also recorded: partial agonists; also recorded: agonist”. Further, in assay [6] (Ki CB1 vs estimated GPR18 IC50), the “selectivity for CB1 versus GPR18” value was “approximately 70 fold”. Also, the “selectivity for CB2 versus GPR18” value in assay [6] (Ki CB2 vs estimated GPR18 IC50) was around 350 fold. For the same compound, in assay [6], the “functional property at GPR18 (agonist/antagonist)” value was “antagonist” and the “agonist effect … at GPR18” value amounted to 0%. The Ki in assay [7] was found to be 145 ± 48 nM.
